# Laboratory results as given in patent publication US4215143A (Mitsui Toatsu Chemicals, Incorporated, priority 1978, dated 1980).
# Tests used:
# pepsin = test: Effect on pepsin activity in pylorus-ligated rats (Anson's method); format: in vivo, Male rats of the Donryu strain; conditions: 250 mg/kg, p.o.; 4 hours; control 7.4 ± 0.5; ** significant vs control at the 1% level
# Description: (§1) Male rats of the Donryu strain, 11 weeks of age, were used in groups of ten. After 24 hours of fasting, the pylorus was ligated. Four hours later, the gastric juice was collected and its volume was measured. Then, its acidity was determined by titrating an aliquot of the gastric juice with 0.05 N sodium hydroxide. Further, the activity of pepsin was determined by Anson's method. A definite amount (250 mg/kg) of a compound to be tested was orally administered immediately after the ligation of the pylorus.
# Gastric Juice Acidity = test: Effect on gastric juice acidity in pylorus-ligated rats; format: in vivo, Male rats of the Donryu strain; conditions: 250 mg/kg, p.o.; 4 hours; control 92.5 ± 3.7; * significant vs control at the 5% level
# Description: as §1
# Gastric Juice Secretion = test: Effect on gastric juice secretion in pylorus-ligated rats; format: in vivo, Male rats of the Donryu strain; conditions: 250 mg/kg, p.o.; 4 hours; control 4.9 ± 0.4; * significant vs control at the 5% level
# Description: as §1
# Aspirin Ulcer = test: Aspirin Ulcer, anti-ulcer effect; format: in vivo, Male rats of the Donryu strain; conditions: p.o., aspirin 250 mg/kg oral, 6 hours
# Description: (§2) The anti-ulcer effect of some compounds of this invention was evaluated with regard to various types of experimental gastric and duodenal ulcers. The method of evaluation for each type of ulcer is outlined below.
# Male rats of the Donryu strain, 10 or 11 weeks of age, were used in groups of ten. After 24 hours of fasting, a certain amount of a compound to be tested was orally administered to each animal of a group. Ten minutes later, aspirin was orally administered in a dose of 250 mg/kg. After 6 hours, the size of the ulcer formed in the glandular part of the stomach was rated by visual inspection and regarded as an ulcer index (U.I.). The results are also expressed in terms of the percentage of inhibition based on the U.I. obtained in the control group receiving no compounds to be tested.
# Acetic Acid Ulcer = test: Acetic Acid Ulcer, healing promotion effect; format: in vivo, Male rats of the Wistar strain; conditions: p.o., twice a day for 7 days
# Description: as §2
# Male rats of the Wistar strain, 6 weeks of age, were used in groups of ten. Under ether anesthesia, each animal was laparotomized, a round frame (with an inside diameter of 5 mm) made of stainless steel was applied to the anterior wall of the stomach, and 100% acetic acid was poured into the frame. After 30 seconds, the acetic acid was removed and the abdomen was closed. Starting on the 7th day after the operation, a certain amount of a compound to be tested was orally administered twice a day to each animal of a group for a period of 7 days. Thereafter, the degree of healing of the ulcer was rated by visual insepction and regarded as an ulcer index (U.I.). The results are also expressed in terms of the percentage of healing based on the U.I. obtained in the control group receiving no compounds to be tested.
# Stress Ulcer = Stress Ulcer (water immersion restraint), anti-ulcer effect; format: in vivo, Male rats of the Wistar strain; conditions: 250 mg/kg, p.o.; stress for 16 hours; vs control group
# Description: The anti-ulcer effect of some compounds of this invention was evaluated with regard to various types of experimental gastric and duodenal ulcers. The method of evaluation for each type of ulcer is outlined below. Male rats of the Wistar strain, 8 weeks of age, were used in groups of ten. Each animal was immobilized in a stressing cage as developed by Takagi et al., immersed in water at 23° C. to the level of the xiphoid process, and thereby subjected to stress for 16 hours. Thereafter, the stomach was excised. The length of the ulcer formed in the glandular part of the stomach was measured and regarded as an ulcer index (U.I.). A certain amount of a compound to be tested was orally administered just before subjecting the animal to stress. The results are also expressed in terms of the percentage of inhibition based on the U.I. obtained in the control group receiving no compounds to be tested.
# Shay's Ulcer = Shay's Ulcer (pylorus ligation), anti-ulcer effect; format: in vivo, Male rats of the Wistar strain; conditions: p.o., 12 hours, vs control group
# Description: The anti-ulcer effect of some compounds of this invention was evaluated with regard to various types of experimental gastric and duodenal ulcers. The method of evaluation for each type of ulcer is outlined below. Male rats of the Wistar strain, 7 or 8 weeks of age, were used in groups of ten. After 48 hours of fasting, the pyloric part of the stomach was ligated under ether anesthesia. Immediately after the operation, a certain amount of a compound to be tested was orally administered to each animal of a group. After 12 hours, the degree of ulceration occurring in the anterior part of the stomach was rated and regarded as an ulcer index (U.I.). Control rats were treated in the same manner as described above, except that they received no compounds to be tested. The results given in Table 1 are expressed in terms of the percentage of inhibition based on the U.I. obtained in the control group.
Substance,Activity of Pepsin (pepsin) [mg/mL],Acidity of Gastric Juice (Gastric Juice Acidity) [mEq/l],Amount of Gastric Juice Secreted (Gastric Juice Secretion) [mL],"percentage of inhibition (ulcer index, Aspirin Ulcer) (Aspirin Ulcer; 100 mg/kg) [percentage]","percentage of inhibition (ulcer index, Aspirin Ulcer) (Aspirin Ulcer; 250 mg/kg) [percentage]","percentage of healing (ulcer index, Acetic Acid Ulcer) (Acetic Acid Ulcer; 100 mg/kg) [percentage]","percentage of healing (ulcer index, Acetic Acid Ulcer) (Acetic Acid Ulcer; 250 mg/kg) [percentage]","percentage of inhibition (ulcer index, Stress Ulcer) (Stress Ulcer) [percentage]","percentage of inhibition (ulcer index, Shay's Ulcer) (Shay's Ulcer; 100 mg/kg) [percentage]","percentage of inhibition (ulcer index, Shay's Ulcer) (Shay's Ulcer; 250 mg/kg) [percentage]"
inositol hexasulfate aluminum salt,4.8 ± 0.4,57.8 ± 12.9,3.6 ± 0.4,–,–,–,–,–,–,–
inositol hexasulfate sodium aluminum salt,5.1 ± 0.5,61.1 ± 11.4,3.6 ± 0.4,42,49,23,28,30,87,90
